According to article PMC12467382, “Synthesis and Bioevaluation of Chalcones as Broad-Spectrum Antiviral Compounds Against Single-Stranded RNA Viruses” (Biomolecules, 2025):

Tests used:
Hs27 cells = test: 48 h MTS growth inhibition assay in Hs27 cells; format: cell-based, human; details: for EC50: Homo sapiens, HS27, 48 h, read-out: Hs27 48 h EC50; for Hs27 48 h EC10: highest concentration giving 90% relative new cell growth after 48 h, 0.5% DMSO
Procedure: A cell growth assay using the MTS reagent was conducted to assess the general toxicity of each chalcone compound. […] Experiments were conducted in triplicate. In a typical experiment, there are two plates. The first is the control plate, which allows one to assess the starting cell population on the day of drug addition (Day 0). The second plate is the test plate where cells are plated and tested with different drug concentrations on Day 0. For example, either CHO cells or Hs27 cells were plated in a 200 µL volume at 1000 cells/well on both the control and test plates and incubated overnight to allow the cells to adhere. On Day 0, 1 μL of PBS was added to the control plate wells so that their total volume was 201 μL. MTS reagent (Promega Cell Titer 96 Aqueous non-radioactive cell proliferation reagent, Promega, Madison, WI, USA) was added (20 μL) to each well on the control plate, and that plate was incubated for 4 h in a 5% CO2 atmosphere at 37 °C and then read on the plate reader.
(§1) On Day 0, 1 μL of a 200× stock solution of each chalcone was added to the respected well on the test plate, and each condition was tested in triplicate. Drug solutions were prepared in advance in 100% DMSO and dosed so that the final DMSO concentration was 0.5%. For example, 1 μL of chalcone solution was added to the cells plated in each well in 200 μL of media. Of note, the respective chalcone addition occurred after an initial overnight incubation of each cell line in each well to reach Day 0 (the drugging day). After the chalcone was added, the cells were incubated in 5% CO2 for 48 h at 37 °C. After 48 h, the MTS reagent (Promega, Madison, WI, USA) was added (20 μL), and the test plates were incubated for an additional 4 h, and then, absorbance at 490 nm was measured on a BioTek Synergy MX plate reader. […] IC50 values were determined from the corresponding plot of relative absorbance at 490 nm vs. the drug concentration.
(§2) For highly colored materials like the chalcones, it is important to consider the contribution of the compound’s own absorbance to the MTS assay. To correct for the absorbance contribution of the chalcone itself, we measured each chalcone’s absorbance (Chalcone Abs) at 490 nm at the respective concentration (e.g., 10 µM) and subtracted the absorbance of the media background (blank Abs). This net value was then subtracted out of the Day 2 absorbance value to provide the % relative growth via the following equation:(1) % Relative Growth = (Day 2 Abs−Day 2 blank Abs)−Chalcone Abs−blank Abs−(Day 0 Abs−Day 0 blank Abs)/(Day 2 Control Abs −Day 2 blank Abs)−(Day 0 Abs−Day 0 blank Abs) ×100%
With the chalcones in hand, we then evaluated their growth-inhibition properties in Chinese hamster ovary (CHO-K1) cells and human Hs27 fibroblast cells.

CHO-K1 cells = test: cells; format: cell-based, Chinese hamster; details: for CHOK1 48 h EC10: Chinese hamster; for EC50: Cricetulus griseus, CHO-K1, 48 h, read-out: CHOK1 48 h EC50
Procedure: A cell growth assay using the MTS reagent was conducted to assess the general toxicity of each chalcone compound. Briefly, cell growth was assayed in sterile 96-well microtiter plates (Costar 3599, Corning Inc., Corning, NY, USA) in the presence of each chalcone. Experiments were conducted in triplicate. In a typical experiment, there are two plates. The first is the control plate, which allows one to assess the starting cell population on the day of drug addition (Day 0). The second plate is the test plate where cells are plated and tested with different drug concentrations on Day 0. For example, either CHO cells or Hs27 cells were plated in a 200 µL volume at 1000 cells/well on both the control and test plates and incubated overnight to allow the cells to adhere. On Day 0, 1 μL of PBS was added to the control plate wells so that their total volume was 201 μL. MTS reagent (Promega Cell Titer 96 Aqueous non-radioactive cell proliferation reagent, Promega, Madison, WI, USA) was added (20 μL) to each well on the control plate, and that plate was incubated for 4 h in a 5% CO2 atmosphere at 37 °C and then read on the plate reader.
as §1, §2
With the chalcones in hand, we then evaluated their growth-inhibition properties in Chinese hamster ovary (CHO-K1) cells and human Hs27 fibroblast cells. […] The results are shown in Table 2 along with a SAR summary of our findings in the host Hs27 cells.

PIV5-GFP = PIV5-GFP viral GFP expression in Hs27 cells by flow cytometry; format: cell-based, parainfluenza virus 5; details: 10 µM; Hs27 cells infected with PIV5-GFP
Procedure: Parainfluenza virus 5 (PIV5) expressing green fluorescence protein (GFP) was derived from cDNA, grown at 37 °C in Madin–Darby bovine kidney (MDBK) cells and titered on CV-1 (African green monkey kidney) cells with a fibroblast morphology as previously described. MDBK and CV-1 cells were the kind gift of Dr. Robert Lamb (Northwestern University). Cells were infected with virus diluted in DMEM supplemented with 10% bovine serum albumin (BSA) for 1 h or mock infected with media alone. Following incubation, cells were washed with phosphate-buffered saline (PBS) and cultured in DMEM supplemented with 2% heat-inactivated (HI) FBS.
Chalcone treatments were performed in DMEM supplemented with 10% HI FBS at the indicated concentrations and for indicated periods of time. Chalcone stocks were reconstituted in 100% dimethyl sulfoxide (DMSO) at a concentration of 10 mM and were serially diluted to working concentrations in DMSO. DMSO control treatments to test the effect of the vehicle were performed at volumes corresponding to the volume of chalcone added during each experiment (i.e., 1 µL chalcone DMSO solution/1 mL DMEM [10 µM] utilized alongside the DMSO control of 1 µL/1 mL DMEM). For cytotoxicity assays, untreated controls were subtracted from DMSO and chalcone sample values to account for the background signal.
For cytotoxicity assays, cells were stained with propidium iodide (PI) at a dilution of 1:100. Cell viability was determined via flow cytometry using the CytoFLEX (Beckman Coulter, Brea, CA, USA). CytExpert software (Beckman Coulter, version 2.4) was used to analyze independent events. PIV5 infection was monitored using flow cytometry via the FITC channel by analyzing GFP expression of individual cells. ZIKV infection was monitored utilizing Flavivirus group antigen–antibody (D1-4G2-4-15; Novus Biologicals, Littleton, CO, USA) staining for the ZIKV envelope protein. Cells were fixed and permeabilized using eBioscience Intracellular Fixation and Permeabilization Buffer (Invitrogen, Thermo Fisher Scientific, MA, USA) according to the manufacturer’s instructions. Secondary staining was performed using an anti-Alexa Fluor 488 (AF488) antibody (Invitrogen, Thermo Fisher Scientific, MA, USA). OC43 infection was monitored utilizing a primary antibody targeted toward the OC43 nucleocapsid protein (NP, MAB9013, Sigma-Aldrich, St. Louis, MO, USA). Secondary staining was performed using an AF488 antibody. Cells were fixed and permeabilized as previously described. LACV infection was monitored utilizing an anti-LACV Gc 807.31ab antibody kindly provided by Andrew Pekosv. Secondary staining was performed using an AF488 antibody. Cells were fixed and permeabilized as previously described.
To measure the effect of chalcone treatment on PIV5 virus growth, Hs27 cells were infected with PIV5-GFP. This engineered negative sense single-stranded RNA virus expresses GFP, which serves as a genome-encoded protein readout. After entering a cell, PIV5 must first undergo primary transcription to convert its genome into mRNA. As genome replication begins, nascent genomes then become templates for further conversion to mRNA and viral gene expression becomes amplified in a process called secondary transcription. For viral proteins to be detectable in cell culture, this amplification must first take place, making the expression of GFP a direct indicator of whether secondary transcription has successfully occurred. […] As shown in the representative data in Figure 4A, ~82% of DMSO-treated PIV5-GFP infected cells were positive for GFP expression. This was reduced to ~2% GFP-positive cells after treatment with 8o. […] These chalcones were therefore selected for further screening for cytotoxicity.
The GFP IC50 was defined as the concentration of chalcone required to inhibit the GFP expression (as measured via flow cytometry) by 50% when compared to DMSO-treated cells. […]

mTOR signaling [1] = test: Western blot of prps6 and rps6 as readouts of mTOR signaling in PANC-1 cells; format: cell-based; details: 72 h, chalcones 10 µM, rapamycin 10 nM
Procedure: PANC-1 cells were cultured in 6-well dishes and were lysed using modified radioimmunoprecipitation assay (RIPA) buffer (20 mM HEPES, pH 7.0, 150 mM NaCl, 1 mM EDTA, 1% NP-40, 1% deoxycholate, and 0.1% sodium dodecyl sulfate [SDS]) containing a complete protease inhibitor cocktail (Roche, Mannheim, Germany) and PhosSTOP phosphatase inhibitor cocktail (Roche, Mannheim, Germany). Protein concentrations were determined using the bicinchoninic acid (BCA) protein assay kit (Pierce, Rockford, IL, USA) according to manufacturer’s instructions. Cell lysates with 25 µg of protein were resolved on 12% sodium dodecyl sulfate-polyacrylamide gel electrophoresis (SDS-PAGE) gels and electro-transferred onto polyvinylidene difluoride (PVDF) membranes (Trans-Blot Turbo Transfer System, BioRad, Hercules, CA, USA). The samples were probed with rabbit monoclonal antibodies for the P-rps6 (1:1000) protein (Cell Signaling, Danvers, MA, USA) and mouse monoclonal antibodies for rps6 (1:1000) (Cell Signaling) and β-actin (1:5000) (Abcam, Waltham, MA, USA) proteins. Blots were visualized using anti-rabbit or anti-mouse horseradish peroxidase (HRP)-conjugated antibodies (Cell Signaling) and chemiluminescence reagent (Thermo Fisher Scientific, Waltham, MA, USA).
PANC-1 cells were chosen for this study as they are highly dependent on mTOR for their growth. PANC-1 cells were cultured and treated with the positive control rapamycin (10 nM) and chalcones NM5, 8a, 8o, 8s, 8v, and 8w (10 μM) for 72 h. Rapamycin and the chalcones were dissolved in 100% DMSO and dosed so that the final DMSO concentration was 0.1%. Cell lysates were collected and analyzed to determine the relative protein expression levels of rps6, prps6, and β-actin as a loading control (see Figure 12).

mTOR signaling [2] = tested on: mTOR signaling; parameters: method as in PMID 28442256; details: SGR2 and Huh7.5 cell lines; cited from earlier work

Compound	EC50 (Hs27 cells)	Hs27 48 h EC10 (Hs27 cells)	CHOK1 48 h EC10 (CHO-K1 cells)	EC50 (CHO-K1 cells)	% GFP relative to DMSO treated (10 µM) (PIV5-GFP)	prps6 expression relative to DMSO control (mTOR signaling [1])	Effect on mTOR signaling (mTOR signaling [2])	total rps6 protein expression relative to DMSO control (mTOR signaling [1])
CCOc1ccc(Br)cc1/C=C/C(=O)c1c(O)cccc1OC [Chalcone 8q, (2E)-3-(5-Bromo-2-Ethoxy-Phenyl)-1-(2-Hydroxy-6-Methoxy-Phenyl)-Propenone]	9.9 ± 1 µM	2.7 ± 0.04 µM	4.3 ± 0.4 µM	6 ± 0.3 µM	–	–	–	–
CCOc1ccc(Br)cc1/C=C/C(=O)c1c(O)cccc1OCCC(C)C [Chalcone 8r, (2E)-3-(5-Bromo-2-Ethoxy-Phenyl)-1-[2-Hydroxy-6-(3-Methyl-Butoxy)-Phenyl]-Propenone]	16.9 ± 2 µM	9.4 ± 0.7 µM	4.7 ± 0.4 µM	6.8 ± 0.7 µM	108.7%	–	–	–
CCOc1ccc(Br)cc1/C=C/C(=O)c1c(O)cccc1OCCc1ccccc1 [Chalcone 8t, (2E)-3-(5-Bromo-2-Ethoxy-Phenyl)-1-[2-Hydroxy-6-Phenethyloxy]-Propenone]	10.3 ± 0.5 µM	6.4 ± 0.5 µM	1.1 ± 0.1 µM	2.6 ± 0.2 µM	84.9%	–	–	–
COc1ccc(Br)cc1/C=C/C(=O)c1c(O)cccc1OCCc1ccccc1 [Chalcone 8u, (2E)-3-(5-Bromo-2-Methoxy-Phenyl)-1-[2-Hydroxy-6-Phenethyloxy]-Propenone]	4.9 ± 0.6 µM	3.4 ± 0.5 µM	1.0 ± 0.1 µM	4.3 ± 0.3 µM	–	–	–	–
COc1ccc(/C=C/C(=O)c2c(O)cccc2OCc2ccccc2)c(OC)c1OC [Chalcone 8y, (2E)-1-(2-Benzloxy-6-Hydroxy-Phenyl)-3-(2,3,4-Trimethoxy-Phenyl)-Propenone]	7.7 ± 0.2 µM	6.3 ± 0.2 µM	7.2 ± 0.6 µM	15.8 ± 1 µM	–	–	–	–
COc1ccc(/C=C/C(=O)c2cc(Br)cc(Br)c2O)cc1OC [NM5, (2E)-1-(3,5-Dibromo-2-hydroxyphenyl)-3-(3,4-dimethoxyphenyl)-2-propen-1-one, reference compound]	1.8 ± 0.1 µM	1.0 ± 0.1 µM	1.1 ± 0.1 µM	6.2 ± 0.3 µM	–	stimulate this prps6 mTOR readout	inhibit mTOR signaling	–
CO[C@H]1C[C@@H]2CC[C@@H](C)[C@@](O)(O2)C(=O)C(=O)N2CCCC[C@H]2C(=O)O[C@H]([C@H](C)C[C@@H]2CC[C@@H](O)[C@H](OC)C2)CC(=O)[C@H](C)/C=C(\C)[C@@H](O)[C@@H](OC)C(=O)[C@H](C)C[C@H](C)/C=C/C=C/C=C/1C [rapamycin, reference compound]	–	–	–	–	–	loss of prps6 expression	–	no significant difference
